Measured values reported in the CheMixHub viscosity set.

Experiment: xn = mol fraction of the nth substance listed

CCCBr + C1CCCCC1
308.15 K, 101 kPa
Details	viscosity [mPa·s]
x2 = 0.0957	0.4455
x2 = 0.1997	0.46
x2 = 0.2991	0.4715
x2 = 0.4983	0.516
x2 = 0.6052	0.5432
x2 = 0.7135	0.5889
x2 = 0.801	0.6197
x2 = 0.9011	0.6872

CCCCCCCCNCCCCCCCC + C1CCCCC1
303.15 K, 101 kPa
Details	viscosity [mPa·s]
x2 = 0.1052	3.382
x2 = 0.2021	3.137
x2 = 0.3028	2.95
x2 = 0.4044	2.591
x2 = 0.5039	2.306
x2 = 0.6016	1.976
x2 = 0.7009	1.653
x2 = 0.8006	1.364
x2 = 0.9216	1.055

CC(C)(C)O + C1COCCO1
298.15 K, 101 kPa
Details	viscosity [mPa·s]
x2 = 0.0878	2.941
x2 = 0.1776	2.179
x2 = 0.2717	1.773
x2 = 0.3647	1.496
x2 = 0.4695	1.304
x2 = 0.571	1.197
x2 = 0.6659	1.134
x2 = 0.7778	1.114
x2 = 0.791	1.111
x2 = 0.8424	1.11
x2 = 0.8786	1.118

CC1OC(C)OC(C)O1 (centres undefined) + CC1COC(=O)O1
viscosity [mPa·s], 101.3 kPa
Details	x1 = 0.091	x1 = 0.2019	x1 = 0.3007	x1 = 0.4055	x1 = 0.5011	x1 = 0.6022	x1 = 0.7006	x1 = 0.8028	x1 = 0.9028
293.15 K	2.641	2.499	2.364	2.215	2.07	1.91	1.75	1.577	1.402
298.15 K	–	–	–	–	–	–	–	1.412	1.26
303.15 K	2.161	2.027	1.907	1.779	1.661	1.531	1.402	1.268	1.134
308.15 K	1.969	1.843	1.732	1.614	1.505	1.385	1.267	1.144	1.024

COCCOCCOCCO + CC1COC(=O)O1
298.15 K, 101.33 kPa
Details	viscosity [mPa·s]
x1 = 0.0048	2.514
x1 = 0.015	2.563
x1 = 0.0231	2.601
x1 = 0.0338	2.645
x1 = 0.0436	2.701
x1 = 0.0626	2.807
x1 = 0.0855	2.896
x1 = 0.1268	3.064
x1 = 0.1715	3.253
x1 = 0.2173	3.462
x1 = 0.2578	3.648
x1 = 0.2932	3.814
x1 = 0.3343	4.013
x1 = 0.3636	4.167
x1 = 0.406	4.368
x1 = 0.445	4.559
x1 = 0.4717	4.699
x1 = 0.5024	4.844
x1 = 0.5261	4.965
x1 = 0.5629	5.143
x1 = 0.6084	5.347
x1 = 0.6548	5.581
x1 = 0.6969	5.687
x1 = 0.7326	5.831
x1 = 0.7667	5.978
x1 = 0.8023	6.05
x1 = 0.8213	6.09
x1 = 0.84	6.121
x1 = 0.8547	6.173
x1 = 0.88	6.194
x1 = 0.8997	6.201
x1 = 0.9173	6.208

COCCOCCOCCOC + CC1COC(=O)O1
298.15 K, 101.33 kPa
Details	viscosity [mPa·s]
x1 = 0.0049	2.492
x1 = 0.0113	2.496
x1 = 0.0249	2.504
x1 = 0.0352	2.516
x1 = 0.0525	2.523
x1 = 0.0833	2.536
x1 = 0.1358	2.56
x1 = 0.1928	2.568
x1 = 0.2559	2.561
x1 = 0.3083	2.543
x1 = 0.3356	2.539
x1 = 0.393	2.494
x1 = 0.466	2.444
x1 = 0.4902	2.428
x1 = 0.5272	2.402
x1 = 0.5728	2.361
x1 = 0.6242	2.308
x1 = 0.6786	2.254
x1 = 0.7038	2.227
x1 = 0.8165	2.127
x1 = 0.8598	2.088
x1 = 0.8959	2.047
x1 = 0.9347	2.021
x1 = 0.964	1.99

CC(C)(C)O + CC#N
viscosity [mPa·s]
Details	298.15 K	303.15 K	308.15 K	313.15 K
101 kPa, x1 = 0.0566	0.3785	0.3701	0.3589	–
101 kPa, x1 = 0.1198	0.4021	0.3935	0.3794	–
101 kPa, x1 = 0.1887	0.4346	0.4229	0.4056	–
101 kPa, x1 = 0.2685	0.4818	0.461	0.4406	–
101 kPa, x1 = 0.3568	0.5555	0.5226	0.4902	–
101 kPa, x1 = 0.4511	0.6735	0.6105	0.5659	–
101 kPa, x1 = 0.5606	0.9097	0.8128	0.7495	–
101 kPa, x1 = 0.6858	1.341	1.18	1.058	–
101 kPa, x1 = 0.831	2.213	1.884	1.63	–
101.3 kPa, x2 = 0.1675	1.925	1.606	1.359	1.158
101.3 kPa, x2 = 0.3117	1.187	1.035	0.909	0.805
101.3 kPa, x2 = 0.4368	0.863	0.756	0.68	0.615
101.3 kPa, x2 = 0.5471	0.66	0.604	0.553	0.509
101.3 kPa, x2 = 0.6446	0.552	0.511	0.474	0.442
101.3 kPa, x2 = 0.73	0.476	0.446	0.418	0.394
101.3 kPa, x2 = 0.8084	0.428	0.404	0.382	0.362
101.3 kPa, x2 = 0.8784	0.394	0.375	0.357	0.34
101.3 kPa, x2 = 0.9421	0.376	0.359	0.342	0.33

CCCCOC(=O)c1ccccc1 + CC#N
viscosity [mPa·s], 101.33 kPa
Details	x1 = 0.125	x1 = 0.244	x1 = 0.355	x1 = 0.463	x1 = 0.563	x1 = 0.654	x1 = 0.75	x1 = 0.83	x1 = 0.919
293.15 K	0.446	0.486	0.533	0.629	0.762	0.956	1.173	1.57	2.131
303.15 K	0.402	0.434	0.472	0.551	0.655	0.808	0.979	1.27	1.69
313.15 K	0.364	0.392	0.424	0.483	0.567	0.696	0.825	1.056	1.368
323.15 K	0.313	0.352	0.382	0.43	0.461	0.603	0.667	0.9	1.119

CC(C)(C)O + CC(=O)N(C)C
303.15 K, 101 kPa
Details	viscosity [mPa·s]
x2 = 0.1094	2.544
x2 = 0.2069	2.032
x2 = 0.3062	1.651
x2 = 0.4037	1.422
x2 = 0.5026	1.255
x2 = 0.6154	1.128
x2 = 0.7028	1.046
x2 = 0.8064	0.973
x2 = 0.8954	0.924

Nc1ccccc1 + CC(=O)O
viscosity [mPa·s]
Details	298.15 K	308.15 K	323.15 K
101.3 kPa, x1 = 0.0382	2.15	1.72	1.27
101.3 kPa, x1 = 0.0652	3.65	2.72	1.83
101.3 kPa, x1 = 0.0972	5.78	4.07	2.51
101.3 kPa, x1 = 0.132	8.79	5.69	3.26
101.3 kPa, x1 = 0.186	14.2	8.51	4.27
101.3 kPa, x1 = 0.229	18.5	10.5	5.14
101.3 kPa, x1 = 0.257	20.3	11.4	5.4
101.3 kPa, x1 = 0.286	20.8	11.6	5.52
101.3 kPa, x1 = 0.3	21.2	11.8	5.58
101.3 kPa, x1 = 0.333	20.5	11.6	5.43
101.3 kPa, x1 = 0.35	20.1	11.1	5.33
101.3 kPa, x1 = 0.377	19	10.7	5.16
101.3 kPa, x1 = 0.425	15.9	9.01	4.61
101.3 kPa, x1 = 0.497	13.5	7.7	4.03
101.3 kPa, x1 = 0.546	10.7	6.51	3.6
101.3 kPa, x1 = 0.675	6.68	4.48	–
101.3 kPa, x1 = 0.799	5.08	3.61	2.39
101.3 kPa, x1 = 0.86	4.57	3.3	2.25
101.33 kPa, x1 = 0.1058	7.29	–	2.96
101.33 kPa, x1 = 0.1746	12.3	–	–
101.33 kPa, x1 = 0.2824	21.9	–	5.65
101.33 kPa, x1 = 0.3086	21.4	–	5.58
101.33 kPa, x1 = 0.3408	20.3	–	5.23
101.33 kPa, x1 = 0.3878	18.1	–	–
101.33 kPa, x1 = 0.5159	11.8	–	3.82

Nc1ccccc1 + CC(C)(C)O
303 K, 101.33 kPa
Details	viscosity [mPa·s]
x1 = 0.1	2.851
x1 = 0.2	2.363
x1 = 0.3	2.307
x1 = 0.4	2.218
x1 = 0.5	2.257
x1 = 0.6	2.305
x1 = 0.7	2.407
x1 = 0.8	2.524
x1 = 0.9	2.766

CC(C)(C)O + CC(C)=O
viscosity [mPa·s], 101 kPa
Details	x1 = 0.0784	x1 = 0.1618	x1 = 0.2497	x1 = 0.3433	x1 = 0.4398	x1 = 0.5382	x1 = 0.6472	x1 = 0.7532	x1 = 0.8729
298.15 K	0.3321	0.3734	0.4146	0.4676	0.5414	0.6566	0.8929	1.304	2.131
303.15 K	0.324	0.3649	0.4058	0.4555	0.514	0.6108	0.8102	1.186	1.881
308.15 K	0.3158	0.3535	0.3941	0.4405	0.4928	0.583	0.7695	1.073	1.632

Nc1ccccc1 + CC(C)=O
298.15 K, 101 kPa
Details	viscosity [mPa·s]
x1 = 0.0833	0.3644
x1 = 0.1692	0.4238
x1 = 0.2591	0.5074
x1 = 0.3523	0.6194
x1 = 0.4492	0.7717
x1 = 0.5502	0.9752
x1 = 0.6556	1.252
x1 = 0.7653	1.679
x1 = 0.8805	2.259

CCC(O)CO (centres undefined) + CC(C)CO
viscosity [mPa·s], 100 kPa
Details	x2 = 0.1	x2 = 0.201	x2 = 0.3	x2 = 0.4	x2 = 0.5	x2 = 0.6	x2 = 0.698	x2 = 0.8	x2 = 0.899
298.15 K	37.85	28.47	21.1	15.45	10.88	7.762	6.307	5.182	3.998
303.15 K	28.29	21.56	16.11	12.08	8.609	6.351	5.187	4.312	3.375
308.15 K	21.44	16.65	12.67	9.596	7.019	5.289	4.334	3.62	2.873
313.15 K	16.62	13.03	10.31	7.809	5.758	4.449	3.635	3.062	2.473
318.15 K	13.08	10.42	8.093	6.339	4.851	3.692	3.08	2.621	2.141
323.15 K	10.47	8.442	6.689	5.231	3.969	3.154	2.639	2.253	1.855

Nc1ccccc1 + CC(C)CO
303 K, 101.33 kPa
Details	viscosity [mPa·s]
x1 = 0.1	2.305
x1 = 0.2	2.138
x1 = 0.3	2.096
x1 = 0.4	2.047
x1 = 0.5	2.073
x1 = 0.6	2.172
x1 = 0.7	2.284
x1 = 0.8	2.366
x1 = 0.9	2.715
